Values of other authors, collected in paper PMC3166015 (Emerging Infectious Diseases, 2011).

System: earliest pandemic (H1N1) 2009 virus isolates
Settings: cited from earlier work

SMILES | susceptibility of earliest virus isolates
CCOC(=O)C1=C[C@@H](OC(CC)CC)[C@H](NC(C)=O)[C@@H](N)C1 [Oseltamivir, oseltamivir] | sensitive
CC(=O)N[C@H]1[C@H]([C@H](O)[C@H](O)CO)OC(C(=O)O)=C[C@@H]1N=C(N)N [Zanamivir, zanamivir] | sensitive
NC12CC3CC(CC(C3)C1)C2 [amantadine] | resistant
CC(N)C12CC3CC(CC(C3)C1)C2 (stereo not shown) [rimantadine] | resistant
